Measured values from patent publication US20230187019A1, “METHOD FOR DETERMINING A DRUG COMBINATION VIA A BLOCKING MODEL OF A MULTI-SITE-TARGETED PROTEIN AND APPLICATIONS THEREOF” (National Tsing Hua University, priority 2021, published 2023).
Where “and” joins values, the source holds several entries; their conditions need not be identical. Equal entries are not always repeated. Where two headings read alike, the source gives them in different places.

Key:
MDA-MB-468 = test: Cell viability assay by WST-1 on MDA-MB-468; format: cell-based, human; conditions: 10 μM, two days, breast MDA-MB-468
Protocol: Three tumor cells were tested, i.e., HCT116 (colorectal cancer), AsPC-1 (pancreatic cancer) and MDA-MB-468 cell lines (breast cancer). Human colorectal carcinoma cell line HCT116 (catalog number: BCRC 60349, Bioresource Collection and Research Center (BCRC), Hsinchu City, Taiwan) was maintained in the culture medium: McCoy's 5a medium (catalog number: 16-600-082, Gibco, Waltham, Mass.) with 1.5 mM L-glutamine (Gibco) and 10% fetal bovine serum (FBS, Gibco). Human pancreatic adenocarcinoma cell line AsPC-1 (catalog number: BCRC 60494, BCRC) was maintained in the culture medium: RPMI 1640 medium (catalog number: 11875168, Gibco) with 2 mM L-glutamine, 4.5 g/L glucose (Gibco), 10 mM HEPES (Gibco), 1 mM sodium pyruvate (Gibco) and 10% fetal bovine serum. […]
For cell viability assay, tumor cells (1×10^5/mL) were suspended in the medium without testing drugs and then inoculated in 96-well plates (100 μL per well) for attachment first. […] Cell proliferation was quantified by using a Premix WST-1 Cell Proliferation Assay System (Takara, Japan). According to the manufacturer's protocol, cell proliferation was determined by measuring the optical density (OD) after the reaction for 3 hours by recording the absorbance at 450 nm using a plate reader (Multiskan Go, Thermo Fisher Scientific).

shCtrl/HCT116 = test: Cell viability assay on shCtrl/HCT116 (control strain); format: cell-based, human; conditions: HCT116 (FIG. 13A, shCtrl/HCT116)
LC3B-II = test: Western blotting of LC3B-II in AK4.4 and AsPC-1 cells; format: cell-based; conditions: AK4.4 and AsPC-1, western blotting
Protocol: Cells were seeded in a 12-well plate (10^5 cells/well) and cultured in serum-free medium (SFM) with different concentrations of drugs for six hours. The plate was then washed with phosphate-buffered saline (PBS), and cells were lysed with 100 μL radioimmunoprecipitation assay buffer (RIPA buffer) for each well. The cell extracts were mixed with 4×dye (900 μL of 4×Laemmli sample buffer+100 μL of 2-mercaptoethanol) at 95° C. for ten minutes and separated by sodium dodecyl sulfate-polyacrylamide gel electrophoresis (SDS-PAGE). The fractions were then transferred to a polyvinylidene fluoride (PVDF) membrane and immersed in 5% nonfat milk at room temperature for one hour. Afterward, the transfer membrane was incubated with protein-specific primary antibodies at 4° C. overnight, washed by PBST (0.1% Tween 20 in PBS), and then incubated with horseradish peroxidase (HRP)-conjugated secondary antibodies at room temperature for one hour. The blots washed by PBST were then detected by enhanced chemiluminescence (ECL) for the quantification of proteins.

AK4.4 = test: Cell viability assay (MTT) on AK4.4; conditions: for IC50: Mus musculus
Protocol: (§1) The cell viability was measured using the MTT assay or CellTiter-Glo Luminescent Cell Viability Assay. For MTT assay, mouse AK4.4 (1,000 cells/well) and human AsPC-1 (1,500 cells/well) cells were seeded in 96-well plates and cultured in serum-free medium (SFM) containing indicated concentrations of drugs for 48 hours. To measure the cell viability, 15 μL MTT (3-(4,5-dimethylthiazol-2-yl)-2,5-diphenyltetrazolium bromide, 5 mg/mL in PBS) was added in each well and kept at 37° C. for three hours. The precipitated crystals were then dissolved in 50 μL DMSO, and the absorbance at 570 nm was measured by Multiskan GO Microplate Spectrophotometer (Thermo Scientific, USA) to estimate the cell survival rate. To quantify the drug combination effect, the combination index was calculated when the cell viability was reduced by 50% using the following Equation (1):

shATG4B/HCT116 = test: Cell viability assay on shATG4B/HCT116 (ATG4B silencing strain); format: cell-based, human
[1] = tested on: AK4.4 pancreatic ductal adenocarcinoma (PDAC) xenograft
AsPC-1 = test: Cell viability assay (MTT) on AsPC-1
Protocol: as §1

ATG4B = ATG4B (Homo sapiens, UniProt Q9Y4P1); test: In vitro cleavage assay of ATG4B catalytic activity (western blot of tagged LC3B); format: biochemical
Protocol: The reagents were incubated at 37° C. for 30 minutes and then subjected to western blotting. The intensity of the band in the gel was calculated by using Image Studio Lite from LI-COR Biosciences or ImageJ.
The full-length LC3B fusion protein was used as the negative control and as the positive control when also incubated with ATG4B (FIG. 22A). […] A peptide that can inhibit ATG4B activity will weaken the fluorescence signal produced by the cleaved PLA2.

3CL^pro = target: T1, 3CL^pro (Severe acute respiratory syndrome coronavirus 2, UniProt P0DTD1); test: FRET-based 3CL^pro enzyme activity assay; format: biochemical; conditions: single use, 3 to 90 μM
T1 construct: A 3CL^pro (Cat. #78042-1) assay kit (BPS Bioscience, CA, USA); purchased BPS Bioscience 78042-1
Protocol: The intensity of this fluorescence is proportional to the protease activity.
Inhibition percentage is calculated by “1−(Itest−Isubstrate)/(Ipositive−Isubstrate),” where I represents the value of inhibition ability.
The FRET (fluorescence resonance energy transfer)-based assay was designed for 3CL^pro activity assay and explained in FIG. 10. The 3CL^pro enzyme assay was developed in a 96-well black microplate with a total volume of 50 μL. 30 μL of 0.5 ng/μL enzyme in a reaction buffer was added into each well, followed by the addition of 10 μL substrate solution to a final concentration of 40 μM.

[2] = Vb concentration for 50% reduction of viability in combination with 0.50 μM Mx

Sequence of ATG4B (Q9Y4P1 whole entry): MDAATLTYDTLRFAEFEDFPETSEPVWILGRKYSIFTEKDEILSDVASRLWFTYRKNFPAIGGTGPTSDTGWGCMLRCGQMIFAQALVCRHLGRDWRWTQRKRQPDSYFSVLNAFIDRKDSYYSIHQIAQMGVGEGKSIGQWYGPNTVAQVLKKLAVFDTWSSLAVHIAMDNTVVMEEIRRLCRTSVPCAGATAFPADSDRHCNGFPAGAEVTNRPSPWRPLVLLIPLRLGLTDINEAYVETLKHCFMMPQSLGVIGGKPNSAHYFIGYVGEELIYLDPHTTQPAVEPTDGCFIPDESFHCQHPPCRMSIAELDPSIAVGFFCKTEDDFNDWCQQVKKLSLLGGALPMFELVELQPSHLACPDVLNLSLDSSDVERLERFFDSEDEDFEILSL

CC1=C(/C=C/C(C)=C/C=C/C(C)=C/C(=O)Nc2ccc(O)cc2)C(C)(C)CCC1 [Fenretinide]
suppression of tumor cell growth (MDA-MB-468): seems to be a better breast cancer inhibitor

CCC1=C[C@@H]2CN(C1)Cc1c([nH]c3ccccc13)[C@@](C(=O)OC)(c1cc3c(cc1OC)N(C)[C@H]1[C@@](O)(C(=O)OC)[C@H](OC(C)=O)[C@]4(CC)C=CCN5CC[C@]31[C@@H]54)C2 [Vinorelbine]
reduced cell viability (shCtrl/HCT116; 4 μM): 55% | reduced cell viability (shCtrl/HCT116; 10 μM): 63% | reduced cell viability (shCtrl/HCT116; 20 μM): 68% | abundance of LC3B-II in cells (LC3B-II): accumulation of LC3B-II | reduced cell viability (AK4.4; AK4.4, 5 μM): 62% | reduced cell viability (AK4.4; AK4.4, 10 μM): 51% | reduced cell viability (AK4.4; AK4.4, 20 μM): 24% | IC50 (AK4.4; read-out: IC50, Vb, vinorelbine alone, AK4.4 (Table 8)): 10.4 µM | IC50 (AK4.4; read-out: IC50, Vb, vinorelbine alone, AK4.4 (Table 14)): 7.19 µM | CVb, 50 (AK4.4; [2]): 3.91 µM | reduced cell viability (shATG4B/HCT116): 37% and 43% and 54% | tumor size compared to the control group ([1]; 20 mg/kg, day 16): 70% | tumor size measured on day 16 versus control group ([1]; dose of 10 mg/kg, days 3, 5, 7, 10, 12, 14): less than half of the tumor size in the control group | reduced cell viability (AsPC-1; AsPC-1, 5 μM): 68% | reduced cell viability (AsPC-1; AsPC-1, 10 μM): 61% | reduced cell viability (AsPC-1; AsPC-1, 20 μM): 46% | IC50 (AsPC-1; Homo sapiens, ASPC1, read-out: IC50, Vb, vinorelbine alone, AsPC-1 (Table 9)): 17.4 µM | IC50 (AsPC-1; Homo sapiens, ASPC1, read-out: IC50, Vb, vinorelbine alone, AsPC-1 (Table 15)): 33.1 µM | viability at 5 µM (AsPC-1; Homo sapiens, ASPC1, read-out: cell viability, AsPC-1, 5 μM vinorelbine alone): 68% | viability at 10 µM (AsPC-1; Homo sapiens, ASPC1, read-out: cell viability, AsPC-1, 10 μM vinorelbine alone): 61% | viability at 20 µM (AsPC-1; Homo sapiens, ASPC1, read-out: cell viability, AsPC-1, 20 μM vinorelbine alone): 46% | CVb, 50 (AsPC-1; [2]): 18.94 µM | CVb, 50 (AsPC-1; Vb concentration for 50% reduction of viability in combination with 1.00 μM Mx): 9.05 µM | reduction of the ATG4B activity on LC3B catalysis (ATG4B; 10 μM vinorelbine, FIG. 4B): 42% | inhibition at 10 µM (ATG4B; read-out: inhibition of ATG4B catalysis): 58%

CC(C)C[C@@H](N)C(=O)N[C@H]1C(=O)N[C@@H](CC(N)=O)C(=O)N[C@H]2C(=O)N[C@H]3C(=O)N[C@H](C(=O)N[C@H](C(=O)O)c4cc(O)cc(O)c4-c4cc3ccc4O)[C@H](O)c3ccc(c(Cl)c3)Oc3cc2cc(c3O[C@@H]2O[C@H](CO)[C@@H](O)[C@H](O)[C@H]2O[C@H]2C[C@](C)(N)[C@H](O)[C@H](C)O2)Oc2ccc(cc2Cl)[C@H]1O [norvancomycin]
inhibition of 3CL^pro (3CL^pro): 20 to 30%
